pIC50, pKi: −log10 of the molar value.
Key:
Nitric oxide synthase 1 [1] = target: T1, Nitric oxide synthase 1 (Homo sapiens, UniProt P29475)
Description: Inhibition of recombinant human nNOS

Nitric oxide synthase 1 [2] = target: T1, Nitric oxide synthase 1; remark: listed apart in the source
Description: Inhibition of recombinant human nNOS

HepG2 = assay: cells; details: Homo sapiens, HepG2, 24 h
Description: Cytotoxicity against human HepG2 cells assessed as reduction in cell viability measured after 24 hrs by MTT assay

Acetylcholinesterase [3] = target: T2, Acetylcholinesterase (Homo sapiens, UniProt P22303); assay: Non competitive type inhibition of human AChE assessed as inhibition constant using varying levels of acetylthiocholine as substrate by double reciprocal Lineweaver-Burk plot analysis
Cholinesterase = Cholinesterase (Homo sapiens, UniProt P06276)
Description: Inhibition of recombinant human BuChE using butyrylthiocholine as substrate by Ellman's method

Acetylcholinesterase [4] = target: T2, Acetylcholinesterase
Description: Inhibition of recombinant human AChE using acetylthiocholine as substrate by DTNB-reagent based Ellman's method

T2 sequence (P22303 whole entry): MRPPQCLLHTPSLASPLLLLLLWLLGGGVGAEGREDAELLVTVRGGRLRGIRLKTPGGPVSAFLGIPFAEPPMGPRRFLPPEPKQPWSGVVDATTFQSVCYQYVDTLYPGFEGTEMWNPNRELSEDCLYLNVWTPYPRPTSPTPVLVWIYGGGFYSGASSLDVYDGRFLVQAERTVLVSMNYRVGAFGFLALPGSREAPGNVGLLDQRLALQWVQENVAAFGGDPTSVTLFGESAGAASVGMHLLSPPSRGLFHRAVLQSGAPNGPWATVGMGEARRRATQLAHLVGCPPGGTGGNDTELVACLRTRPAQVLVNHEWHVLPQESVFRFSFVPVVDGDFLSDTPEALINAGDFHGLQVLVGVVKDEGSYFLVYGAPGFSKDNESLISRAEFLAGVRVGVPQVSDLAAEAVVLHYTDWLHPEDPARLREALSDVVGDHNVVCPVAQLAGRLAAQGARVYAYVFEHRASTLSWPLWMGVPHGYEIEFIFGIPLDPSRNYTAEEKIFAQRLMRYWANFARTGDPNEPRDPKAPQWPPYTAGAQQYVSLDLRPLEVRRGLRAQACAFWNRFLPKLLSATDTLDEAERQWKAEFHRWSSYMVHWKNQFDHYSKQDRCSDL
T1 sequence (P29475 whole entry): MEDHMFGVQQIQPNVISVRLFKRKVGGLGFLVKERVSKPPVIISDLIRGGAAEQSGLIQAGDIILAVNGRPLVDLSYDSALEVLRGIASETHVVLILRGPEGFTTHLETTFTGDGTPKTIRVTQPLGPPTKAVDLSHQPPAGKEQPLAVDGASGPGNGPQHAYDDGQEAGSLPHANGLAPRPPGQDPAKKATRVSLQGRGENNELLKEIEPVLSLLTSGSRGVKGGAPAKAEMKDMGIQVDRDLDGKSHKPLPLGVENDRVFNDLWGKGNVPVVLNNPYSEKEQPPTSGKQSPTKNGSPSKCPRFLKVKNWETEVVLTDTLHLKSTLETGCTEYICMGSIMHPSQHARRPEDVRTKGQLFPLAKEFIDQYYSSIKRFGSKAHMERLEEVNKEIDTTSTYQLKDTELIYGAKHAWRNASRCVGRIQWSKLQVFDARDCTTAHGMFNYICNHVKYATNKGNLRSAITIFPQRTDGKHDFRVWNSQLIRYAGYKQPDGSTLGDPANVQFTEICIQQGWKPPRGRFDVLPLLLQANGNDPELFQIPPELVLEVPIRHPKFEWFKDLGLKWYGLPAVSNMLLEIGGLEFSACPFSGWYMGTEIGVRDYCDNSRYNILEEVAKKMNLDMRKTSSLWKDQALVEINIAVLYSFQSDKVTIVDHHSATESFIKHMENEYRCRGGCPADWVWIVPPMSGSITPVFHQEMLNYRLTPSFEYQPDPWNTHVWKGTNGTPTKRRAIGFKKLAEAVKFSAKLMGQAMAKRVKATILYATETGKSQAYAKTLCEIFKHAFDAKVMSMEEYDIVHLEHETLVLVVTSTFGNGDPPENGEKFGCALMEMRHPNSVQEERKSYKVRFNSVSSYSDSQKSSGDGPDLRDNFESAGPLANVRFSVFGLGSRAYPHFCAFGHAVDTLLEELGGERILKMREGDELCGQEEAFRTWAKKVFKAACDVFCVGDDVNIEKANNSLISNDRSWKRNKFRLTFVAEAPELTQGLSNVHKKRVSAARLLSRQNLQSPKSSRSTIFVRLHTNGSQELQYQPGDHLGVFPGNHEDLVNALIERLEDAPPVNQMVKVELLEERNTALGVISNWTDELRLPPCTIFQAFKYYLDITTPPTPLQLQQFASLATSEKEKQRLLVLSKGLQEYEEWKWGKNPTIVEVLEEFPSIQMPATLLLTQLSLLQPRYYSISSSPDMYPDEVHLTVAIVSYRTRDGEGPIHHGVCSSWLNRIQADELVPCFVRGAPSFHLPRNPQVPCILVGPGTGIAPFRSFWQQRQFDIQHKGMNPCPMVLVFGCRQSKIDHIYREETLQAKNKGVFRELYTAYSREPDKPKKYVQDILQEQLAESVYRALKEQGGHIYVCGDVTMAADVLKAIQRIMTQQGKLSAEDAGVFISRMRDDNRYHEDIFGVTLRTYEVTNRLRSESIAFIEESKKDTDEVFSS
Sequence of Cholinesterase (P06276 whole entry): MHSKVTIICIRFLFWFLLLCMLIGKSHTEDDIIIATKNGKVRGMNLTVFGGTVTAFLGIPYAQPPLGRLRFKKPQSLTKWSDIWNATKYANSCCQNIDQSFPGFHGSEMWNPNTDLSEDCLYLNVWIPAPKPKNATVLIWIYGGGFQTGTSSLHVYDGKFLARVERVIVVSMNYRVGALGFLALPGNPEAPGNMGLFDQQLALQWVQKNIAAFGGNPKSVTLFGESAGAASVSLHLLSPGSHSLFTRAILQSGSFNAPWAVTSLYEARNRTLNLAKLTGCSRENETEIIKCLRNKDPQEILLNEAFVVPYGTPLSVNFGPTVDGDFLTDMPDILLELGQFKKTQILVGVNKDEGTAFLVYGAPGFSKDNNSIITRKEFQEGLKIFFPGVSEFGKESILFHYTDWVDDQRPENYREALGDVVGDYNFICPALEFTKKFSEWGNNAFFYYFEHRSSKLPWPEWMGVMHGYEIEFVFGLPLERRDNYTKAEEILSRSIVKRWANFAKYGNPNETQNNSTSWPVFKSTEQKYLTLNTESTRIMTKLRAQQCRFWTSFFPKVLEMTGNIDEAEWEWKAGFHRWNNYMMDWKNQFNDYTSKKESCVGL

SMILES | IC50 (Nitric oxide synthase 1 [1]) | pIC50 (Nitric oxide synthase 1 [2]) | pIC50 (HepG2) | pKi (Acetylcholinesterase [3]) | pIC50 (Cholinesterase) | pIC50 (Acetylcholinesterase [4])
N[C@@H](Cc1c[nH]c2ccccc12)C(=O)NCCCCCCNc1c2c(nc3cc(Cl)ccc13)CCCC2 | – | 4.59 | – | – | – | –
CC1=CC2Cc3nc4cc(Cl)ccc4c(NCCCCCCNC(=O)[C@@H](N)Cc4c[nH]c5ccccc45)c3C(C1)C2 (some centres undefined) | – | 4.73 | 5.25 | 7.64 | 7.34 | 7.93
CC1=CC2Cc3nc4cc(Cl)ccc4c(NCCCCCNC(=O)[C@@H](N)Cc4c[nH]c5ccccc45)c3C(C1)C2 (some centres undefined) | – | 4.62 | 5.32 | – | 7.17 | 7.64
CC1=CC2Cc3nc4cc(Cl)ccc4c(NCCCCCCCNC(=O)[C@@H](N)Cc4c[nH]c5ccccc45)c3C(C1)C2 (some centres undefined) | – | 4.46 | 4.91 | – | 7.07 | 7.92
COc1ccc2nc3c(c(N)c2c1)C1CC(C)=CC(C3)C1 (racemic) | – | 4.49 | 4.83 | – | – | –
CC1=CC2Cc3nc4cc(Cl)ccc4c(N)c3C(C1)C2 (racemic) | – | – | 4.80 | – | – | –

The next lines start with results.

IC50 (Nitric oxide synthase 1 [1]) | SMILES | pIC50 (Nitric oxide synthase 1 [2]) | pIC50 (HepG2) | pKi (Acetylcholinesterase [3]) | pIC50 (Cholinesterase) | pIC50 (Acetylcholinesterase [4])
Not Active | COc1ccc2nc3c(c(N)c2c1)CCCC3 | – | – | – | – | –
Not Active | Nc1c2c(nc3cc(Cl)ccc13)CCCC2 | – | – | – | – | –

— ChEMBL document CHEMBL4819137, “Huprine Y - Tryptophan heterodimers with potential implication to Alzheimer's disease treatment” (Bioorg Med Chem Lett, 2021)
